From ChEMBL document CHEMBL1127998, “Conformationally constrained analogues of diacylglycerol. 9.1 the effect of side-chain orientation on the protein kinase C (PK-C) binding affinity of -lactones” (Bioorg Med Chem Lett, 1994)

Test: Displacement of [3H-20]-phorbol-12-13-dibutyrate from protein kinase C (alpha, beta, gamma) of mouse brain
Assay type: tissue-based

SMILES	Ki [nM]
CCCCCCCCCCCCCC(=O)O[C@@H]1CC(=O)O[C@H]1CO	2500
CCCCCCCCCCCCC/C=C1/C(=O)O[C@@H](CO)[C@@H]1OC(C)=O	600
CCCCCCCCCCCCC/C=C1\C(=O)O[C@@H](CO)[C@@H]1OC(C)=O	200
CCCCCCCCCCCCCC(=O)O[C@@H]1CCC(=O)O[C@H]1CO	2800
